Source: paper PMC9645390, “Amphiphilic stilbene derivatives attenuate the neurotoxicity of soluble Aβ42 oligomers by controlling their interactions with cell membranes” (Chemical Science, 2022)
Entries after “also recorded” stand apart in the source; their conditions may differ.

How the values were obtained:
[1] = tested on: Aβ oligomers–SH-SY5Y cell membrane interactions; test: Confocal imaging of Aβ oligomers binding to SH-SY5Y cell membranes; format: cell-based, human; conditions: 5 μM Aβ oligomers + 5 μM compound, 24 h; for Aβ oligomers bound to cell membranes (in words): CF594-HJ 3.4 staining
From the text: Encouraged by the ability of the developed amphiphilic compounds to attenuate the neurotoxicity of Cu–Aβ species, we sought out to study the possible molecular mechanisms for this beneficial effect. The Aβ oligomers were reported to interact with cell membranes in various ways, such as binding to receptors on cell membranes,[49,50] inserting into membranes,[51] or even showing cellular uptake via endocytosis.[52] The abnormal interactions between Aβ oligomers and neuron cells, which could disrupt the neuronal ion homeostasis and neuron cell membrane integrity, might be why Aβ oligomers are highly neurotoxic.[53–55] Moreover, molecules that can disrupt interactions between oligomers and cell membranes are promising candidates for drug development.[56,57] Thus, we proceeded to probe the interactions of the Aβ42 oligomers with SH-SY5Y cellular membranes, in the absence and presence of the compounds, via confocal microscopy. […] Moreover, a lower concentration of Aβ42 (5 μM) or Aβ42–Cu (5 μM) were chosen to avoid significant cell death (Fig. S9b ^†). Before investigating the neuroprotective effect of our compounds, we have also confirmed that Aβ aggregates interact tightly with the cell membranes, as shown via co-staining with a membrane specific dye (Fig. S10 ^†). […]
Fig. 10 (a) SH-SY5Y cells were treated with 5 μM Aβ oligomers in the presence or absence of 5 μM ZY-15-MT or 5 μM ZY-15-OMe for 24 h before imaging. Red and blue fluorescence indicate the Aβ oligomers and nuclei, respectively. […] (b) Three independent experiments were subjected for the statistical analysis and analyzed by one-way ANOVA (*P < 0.05, ***P < 0.001).
RCSB database and optimized by minimal minimization with the OPLS3 force field using the Protein Preparation Wizard program. […] The calculated poses were ranked by both the docking score and Glide e-model energy, and the structures with the best docking scores and Glide e-model energies were rendered in […]

[2] = tested on: mouse neuroblastoma N2a cells; test: Alamar Blue cytotoxicity assay in N2a cells; format: cell-based; conditions: 2 to 20 μM
[3] = target: T1, human serum albumin (HSA) (Homo sapiens, UniProt P02768); test: Fluorescence turn-on with human serum albumin (selectivity); format: binding; conditions: compound 5 µM, HSA 1 mg/mL, Aβ42 fibrils 25 µM for comparison
T1 construct: purchased
T1 sequence (P02768 25-609): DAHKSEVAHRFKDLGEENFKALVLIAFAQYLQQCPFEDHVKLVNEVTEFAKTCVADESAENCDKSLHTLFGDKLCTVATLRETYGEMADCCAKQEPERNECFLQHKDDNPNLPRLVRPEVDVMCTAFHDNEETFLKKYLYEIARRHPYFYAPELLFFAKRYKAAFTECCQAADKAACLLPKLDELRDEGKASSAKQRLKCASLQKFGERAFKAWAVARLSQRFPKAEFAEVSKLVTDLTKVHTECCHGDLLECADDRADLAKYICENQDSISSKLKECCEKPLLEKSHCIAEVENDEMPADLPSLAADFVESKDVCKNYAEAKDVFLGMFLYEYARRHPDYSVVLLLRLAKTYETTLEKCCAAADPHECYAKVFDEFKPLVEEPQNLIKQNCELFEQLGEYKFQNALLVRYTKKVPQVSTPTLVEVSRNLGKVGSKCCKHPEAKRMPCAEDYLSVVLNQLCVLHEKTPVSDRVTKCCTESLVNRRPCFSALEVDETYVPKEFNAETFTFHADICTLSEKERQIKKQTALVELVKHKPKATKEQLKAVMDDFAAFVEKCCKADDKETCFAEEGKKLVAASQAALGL
Description: To investigate whether these amphiphilic compounds can interact with different Aβ species, we recorded the fluorescence intensity changes in the absence and presence of Aβ42 fibrils and oligomers, respectively, which were prepared as previously reported.[28] […] The enhanced fluorescence intensity and blue shift are possibly due to the restriction in a rotation of the aromatic rings and the changes of hydrophobicity at the Aβ binding sites. […] Comparing the ZY-17 series with the other series of compounds, we believe that the thiophene ring in the stilbene-like binding scaffold is essential for the selectively toward Aβ species, while the more hydrophobic tri-benzene rings might lead to unspecific binding to other proteins; such a design principle will be key for the development of second-generation compounds with increased Aβ-binding selectivity.
Figure S4. Fluorescence turn-on effects of amphiphilic compounds with HAS; [compound] = 5 µM, [Aβ42 fibrils] = […]

| Structure (SMILES) | decrease of the numbers of Aβ oligomers binding to the cell membranes [1] | Aβ oligomers bound to cell membranes (in words) [1] | cytotoxicity (in words) [2] | fluorescence turn-on in the presence of HSA (in words) [3] |
| --- | --- | --- | --- | --- |
| CN1CCN(C)CCN(Cc2cc(/C=C/c3ccc(-c4ccc(C=O)cc4)s3)ccc2O)CC1 [ZY-15-MT] | about 50% | fewer numbers of Aβ oligomers bound to the cell membranes | – | – |
| COc1cc(/C=C/c2ccc(-c3ccc(C=O)cc3)s2)cc(CN2CCN(C)CCN(C)CC2)c1O [ZY-15-OMe] | – | fewer numbers of Aβ oligomers bound to the cell membranes | – | – |
| COc1cc(OC)cc(-c2ccc(/C=C/c3cc(CN4CCN(C)CCN(C)CC4)c(O)c(CN4CCN(C)CCN(C)CC4)c3)cc2)c1 [ZY-17-DT] | – | – | higher cytotoxicity than others | even higher fluorescence intensity increase in the presence of HSA than for Aβ42 fibrils |
| COc1cc(OC)cc(-c2ccc(/C=C/c3cc(CN4CCN(C)CCN(C)CC4)c(O)c(OC)c3)cc2)c1 [ZY-17-OMe] | – | – | higher cytotoxicity than others; also recorded: the highest toxicity | even higher fluorescence intensity increase in the presence of HSA than for Aβ42 fibrils |
